Assay results published in patent US11547696B2, “Methods and compositions for treatment of myelodysplastic syndromes and/or acute myeloid leukemias” (Children's Hospital Medical Center, priority 2016, dated 2023).
Entries after “also recorded” stand apart in the source; their conditions may differ. Read-outs that look alike come from different tables or passages of the source.

Key:
[1] = system: NFkB and interferon signaling in AML/MDS cells; assay: NFkB and interferon signaling in AML/MDS cells; type: cell-based; details: for NFkB signaling: AML cells
MOLM-13 and THP-1 cells = assay: DNA damage in MOLM-13 and THP-1 cells; type: cell-based
UBE2N [2] = target: T1, UBE2N (Homo sapiens, UniProt P61088); assay: UBE2N ubiquitination at Lysine (K)-92
T1 construct: endogenous in cells
T1 sequence (P61088 1-152): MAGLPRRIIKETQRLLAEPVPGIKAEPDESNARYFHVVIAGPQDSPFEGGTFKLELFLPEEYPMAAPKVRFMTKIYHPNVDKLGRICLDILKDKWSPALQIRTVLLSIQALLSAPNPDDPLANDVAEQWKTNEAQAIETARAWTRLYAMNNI

DDB1 = DDB1 ubiquitination following UBE2N inhibition; type: cell-based; details: following inhibition of UBE2N
Source text: (§1) To identify the molecular basis of UBE2N inhibition, Applicant performed a global ubiquitin screen for changes in ubiquitinated substrates and gene expression profiling by RNA sequencing. For the ubiquitin screen, K63 ubiquinated proteins were immunopreciptated from MDSL cells upon pharmacologic inhibition of UBE2N, followed by mass spectrometry analysis.
(§2) One substrate identified in NSC697923-treated MDSL cells by the ubiquitin screen is DDB1, a component of the CUL4-CRBN E3 ligase complex targeted by Lenalidomide (LEN). […] LEN has shown encouraging results in del(5q) MDS patients (“deletion 5q (del 5q) MDS” in which part of chromosome 5 is missing), but its effects are limited in other cytogenetic subtypes of MDS or AML. Therefore, the identification of molecular targets that can enhance or extend the use of LEN in a broader spectrum of patients is desired Applicant explored the possibility of a cooperative effect of LEN and NSC697923 on MDS/AML cells. […] As such, UBE2N is a promising target for extending the use of LEN to other subtypes of MDS/AML.

UBE2N [3] = target: T1, UBE2N; assay: Direct binding to UBE2N (Michael-Addition reaction); details: through a Michael-Addition reaction
AML/MDS cells [4] = assay: Proliferation of AML/MDS cells; type: cell-based
AML/MDS cells [5] = assay: Clonogenic potential of AML/MDS cells; type: cell-based
UBE2N active site mutant = assay: Inhibition of NFkB with UBE2N active site mutant; type: cell-based
AML cells = assay: Viability of AML cells; type: cell-based
[6] = system: TLR mediated NFkB activity; assay: TLR mediated NFkB activity; type: cell-based; details: for TLR mediated NFkB signaling: AML cells
AML/MDS cells [7] = assay: Cell cycle of AML/MDS cells; type: cell-based
normal HSPC = assay: Clonogenic capacity of normal HSPC; type: cell-based
MDSL cells [8] = assay: RNA sequencing / expression in MDSL cells; type: cell-based
Source text: as §1

MDS/AML cells [9] = assay: Cellular metabolic activity of MDS/AML cells; type: cell-based
TRAF6 = TRAF6 protein expression; type: cell-based; details: rescued by inhibition of the proteasome
AML/MDS cells [10] = assay: Cell death of AML/MDS cells; type: cell-based
MDSL cells [11] = assay: Global ubiquitin screen in MDSL cells; type: cell-based
Source text: as §1

AML/MDS cells [12] = assay: DNA damage in AML/MDS cells; type: cell-based
[13] = system: MDS/AML cell lines and patient samples; assay: Combination with lenalidomide on MDS/AML cell lines and patient samples in vitro; type: cell-based; details: MDS/AML cells
Source text: as §2

normal CD34+ cells = assay: Function of normal CD34+ cells in the presence of lenalidomide; type: cell-based
MDS/AML cells [14] = assay: Targeting MDS/AML cells in vivo
primary MDS stem cells = assay: Clonogenic potential of primary MDS stem cells; type: cell-based

Structure (SMILES) | NFkB signaling [1] | DNA damage (MOLM-13 and THP-1 cells) | UBE2N ubiquination at Lysine (K)-92 (UBE2N [2]) | DDB1 ubiquination (DDB1) | direct binding to UBE2N (UBE2N [3]) | proliferation (AML/MDS cells [4]; AML cells) | clonogenic potential (AML/MDS cells [5]; AML cells) | sensitivity of UBE2N active site mutant to inhibition of NFkB (UBE2N active site mutant) | viability (AML cells) | TLR mediated NFkB signaling [6] | further results
Cc1ccc(S(=O)(=O)/C=C/C#N)cc1 [UC64] | inhibits NFkB signaling | does not cause DNA damage | reduces UBE2N ubiquination at Lysine (K)-92 | differentially ubiquinated | directly bind UBE2N | reduces their proliferation | reduces their clonogenic potential | less sensitive | reduces their viability | inhibits TLR mediated NFkB signaling | –
Cc1ccc(S(=O)(=O)c2ccc([N+](=O)[O-])o2)cc1 [NSC697923] | – | – | – | – | – | – | – | – | – | – | NFkB and interferon signaling ([1]; AML/MDS cells, listed as NSC23): inhibits NKkB and interferon signaling; also recorded: inhibits NFkB and interferon signaling; cell cycle arrest (AML/MDS cells [7]): induced a G2/M cell cycle arrest; cell cycle arrest (AML/MDS cells [7]; listed as NSC23): induces cell cycle arrest in mitosis; effect on normal HSPC (clonogenic capacity) (normal HSPC): not significantly affecting normal HSPC; expression of APC/CDC20 substrates (i.e., cyclin B1) (MDSL cells [8]): increased expression of APC/CDC20 substrates; gene expression changes by RNA sequencing (MDSL cells [8]; MDSL cells): expression changes in genes involved in mRNA processing, cell cycle, and glycolysis; cellular metabolic activity (MDS/AML cells [9]): reduced the cellular metabolic activity; proliferation (AML/MDS cells [4]; AML/MDS cells): reduces proliferation; clonogenic potential (AML/MDS cells [5]; AML/MDS cells): reduces proliferation and clonogenic potential; clonogenic capacity (AML/MDS cells [5]; MDSL/AML cell lines and primary cells): reduced the clonogenic capacity; TRAF6 protein expression (TRAF6): dramatic loss of TRAF6 protein expression; cell death (AML/MDS cells [10]): increased cell death; cell death (AML/MDS cells [10]; listed as NSC23): cell death; protein ubiquination (MDSL cells [11]): Differential protein ubiquination; DNA damage (AML/MDS cells [12]): induces DNA damage; TLR mediated NFkB activity [6]: inhibits TLR mediated NFkB activity
Nc1cccc2c1CN(C1CCC(=O)NC1=O)C2=O (stereo not shown) [lenalidomide] | – | – | – | – | – | – | – | – | – | – | cytotoxic effects of lenalidomide with UBE2N inhibition [13]: enhances the cytotoxic effects; function of normal CD34+ cells with UBE2N inhibition in the presence of lenalidomide (normal CD34+ cells): does not affect the function of normal CD34+ cells
Cc1ccc(S(=O)(=O)c2ccc([N+](=O)[O-])o2)cc1 [UC65] | inhibits NFkB signaling | does not cause DNA damage | reduces UBE2N ubiquination at Lysine (K)-92 | differentially ubiquinated | directly bind UBE2N | reduces their proliferation | reduces their clonogenic potential | less sensitive | reduces their viability | inhibits TLR mediated NFkB signaling | effectiveness against MDS/AML cells in vivo (MDS/AML cells [14]): effective against targeting MDS/AML cells in vivo; clonogenic potential (primary MDS stem cells): reduces their clonogenic potential
